The source made the active and inactive calls. The calls are words filed in the database; no cut-off is given here.
Tests used:
[1] = system: Pseudomonas aeruginosa; experiment: Antibacterial activity against Pseudomonas aeruginosa ATCC 27853 at 140 ug/disk after 24 hr by disk-diffusion method; type: functional, organism-based
[2] = system: Staphylococcus aureus; experiment: Antibacterial activity against Staphylococcus aureus ATCC 25923 at 140 ug/disc after 24 hr by disk diffusion method; type: functional
[3] = system: Pseudomonas aeruginosa; experiment: Antibacterial activity against Pseudomonas aeruginosa ATCC 27853 at 20 ug/disk after 24 hr by disk-diffusion method; type: functional, organism-based
[4] = system: Bacillus cereus; experiment: Antibacterial activity against Bacillus cereus NRRL 3711 at 20 ug/disk after 24 hr by disk diffusion method; type: functional; conditions: for zone of inhibition at 20 µg/disc: NRRL 3711, 24 h, read-out: DIZ
[5] = system: Nocardia; experiment: Antibacterial activity against Nocardia canis at 140 ug/disk after 24 hr by disk diffusion method; type: functional
[6] = system: Staphylococcus aureus; experiment: Antibacterial activity against Staphylococcus aureus ATCC 25923 at 40 ug/disc after 24 hr by disk diffusion method; type: functional
[7] = system: Aspergillus niger; experiment: Antifungal activity against Aspergillus niger ATCC 10949 at 140 ug/disk after 72 hr by disk diffusion method; type: functional; conditions: for zone of inhibition at 140 µg/disc: ATCC 10949, 72 h, read-out: DIZ
[8] = system: Nocardia; experiment: Antibacterial activity against Nocardia canis at 20 ug/disk after 24 hr by disk diffusion method; type: functional, organism-based
[9] = system: Rhodotorula mucilaginosa; experiment: Antifungal activity against Rhodotorula mucilaginosa at 20 ug/disk after 48 hr by disk diffusion method; type: functional
[10] = system: Staphylococcus epidermidis; experiment: Antibacterial activity against Staphylococcus epidermidis ATCC 12228 at 40 ug/disk after 24 hr by disk diffusion method; type: functional
[11] = system: Aspergillus niger; experiment: Antifungal activity against Aspergillus niger ATCC 10949 at 20 ug/disk after 72 hr by disk diffusion method; type: functional, organism-based
[12] = system: Proteus vulgaris; experiment: Antibacterial activity against Proteus vulgaris NRRL-B-123 at 40 ug/disk after 24 hr by disk diffusion method; type: functional, organism-based
[13] = system: Escherichia coli; experiment: Antibacterial activity against Escherichia coli ATCC 25922 at 20 ug/disk after 24 hr by disk-diffusion method; type: functional
[14] = system: Candida albicans; experiment: Antifungal activity against Candida albicans ATCC 10231 at 20 ug/disk after 48 hr by disk-diffusion method; type: functional; conditions: for zone of inhibition at 20 µg/disc: ATCC 10231, 48 h, read-out: DIZ
[15] = system: Staphylococcus epidermidis; experiment: Antibacterial activity against Staphylococcus epidermidis ATCC 12228 at 20 ug/disk after 24 hr by disk diffusion method; type: functional, organism-based
[16] = system: Proteus vulgaris; experiment: Antibacterial activity against Proteus vulgaris NRRL-B-123 at 140 ug/disk after 24 hr by disk diffusion method; type: functional, organism-based
[17] = system: Staphylococcus epidermidis; experiment: Antibacterial activity against Staphylococcus epidermidis ATCC 12228 at 140 ug/disk after 24 hr by disk diffusion method; type: functional
[18] = system: Proteus vulgaris; experiment: Antibacterial activity against Proteus vulgaris NRRL-B-123 at 20 ug/disk after 24 hr by disk diffusion method; type: functional, organism-based
[19] = system: Candida albicans; experiment: Antifungal activity against Candida albicans ATCC 10231 at 40 ug/disk after 48 hr by disk-diffusion method; type: functional; conditions: ATCC 10231, 48 h, read-out: DIZ
[20] = system: Rhodotorula mucilaginosa; experiment: Antifungal activity against Rhodotorula mucilaginosa at 140 ug/disk after 48 hr by disk diffusion method; type: functional; conditions: for zone of inhibition at 140 µg/disc: read-out: DIZ
[21] = system: Nocardia; experiment: Antibacterial activity against Nocardia canis at 40 ug/disk after 24 hr by disk diffusion method; type: functional
[22] = system: Escherichia coli; experiment: Antibacterial activity against Escherichia coli ATCC 25922 at 140 ug/disk after 24 hr by disk-diffusion method; type: functional; conditions: for zone of inhibition at 140 µg/disc: ATCC 25922, 24 h, read-out: DIZ
[23] = system: Bacillus cereus; experiment: Antibacterial activity against Bacillus cereus NRRL 3711 at 40 ug/disk after 24 hr by disk diffusion method; type: functional; conditions: for zone of inhibition at 40 µg/disc: NRRL 3711, 24 h, read-out: DIZ
[24] = system: Escherichia coli; experiment: Antibacterial activity against Escherichia coli ATCC 25922 at 40 ug/disk after 24 hr by disk-diffusion method; type: functional; conditions: for zone of inhibition at 40 µg/disc: ATCC 25922, 24 h, read-out: DIZ
[25] = system: Bacillus cereus; experiment: Antibacterial activity against Bacillus cereus NRRL 3711 at 140 ug/disk after 24 hr by disk diffusion method; type: functional; conditions: for zone of inhibition at 140 µg/disc: NRRL 3711, 24 h, read-out: DIZ
[26] = system: Candida albicans; experiment: Antifungal activity against Candida albicans ATCC 10231 at 140 ug/disk after 48 hr by disk-diffusion method; type: functional; conditions: ATCC 10231, 48 h, read-out: DIZ
[27] = system: Pseudomonas aeruginosa; experiment: Antibacterial activity against Pseudomonas aeruginosa ATCC 27853 at 40 ug/disk after 24 hr by disk-diffusion method; type: functional, organism-based
[28] = system: Staphylococcus aureus; experiment: Antibacterial activity against Staphylococcus aureus ATCC 25923 at 20 ug/disc after 24 hr by disk diffusion method; type: functional
[29] = system: Aspergillus niger; experiment: Antifungal activity against Aspergillus niger ATCC 10949 at 40 ug/disk after 72 hr by disk diffusion method; type: functional, organism-based
[30] = system: Rhodotorula mucilaginosa; experiment: Antifungal activity against Rhodotorula mucilaginosa at 40 ug/disk after 48 hr by disk diffusion method; type: functional; conditions: for zone of inhibition at 40 µg/disc: read-out: DIZ
[31] = ATCC 25923, 24 h, read-out: DIZ
[32] = ATCC 12228, 24 h, read-out: DIZ

SMILES	diameter of the inhibition zone (DIZ) [1]	diameter of the inhibition zone (DIZ) [3]	diameter of the inhibition zone (DIZ) [8]	diameter of the inhibition zone (DIZ) [11]	diameter of the inhibition zone (DIZ) [12]	diameter of the inhibition zone (DIZ) [15]	diameter of the inhibition zone (DIZ) [16]	diameter of the inhibition zone (DIZ) [18]	zone of inhibition at 40 µg/disc [19]	zone of inhibition at 140 µg/disc [20]	zone of inhibition at 140 µg/disc [25]	zone of inhibition at 140 µg/disc [26]	diameter of the inhibition zone (DIZ) [27]	diameter of the inhibition zone (DIZ) [29]	diameter of the inhibition zone (DIZ) [2]	diameter of the inhibition zone (DIZ) [5]	diameter of the inhibition zone (DIZ) [6]	diameter of the inhibition zone (DIZ) [9]	diameter of the inhibition zone (DIZ) [10]	diameter of the inhibition zone (DIZ) [13]	other results
CC1(C)CCC2=C(C1=O)C(c1cccc(C3C4=C(CCC(C)(C)C4=O)OC4=C3C(=O)C(C)(C)CC4)c1)C1=C(CCC(C)(C)C1=O)O2	inactive	inactive	inactive	inactive	inactive	inactive	inactive	inactive	9 mm	12 mm	9 mm	9 mm	inactive	inactive							zone of inhibition at 140 µg/disc [2, 31]: 15 mm; zone of inhibition at 20 µg/disc [4]: 8 mm; zone of inhibition at 140 µg/disc ([5]; read-out: DIZ): 8 mm; zone of inhibition at 40 µg/disc [6, 31]: 10 mm; zone of inhibition at 140 µg/disc [7]: 7 mm; zone of inhibition at 20 µg/disc ([9]; read-out: DIZ): 8 mm; zone of inhibition at 40 µg/disc [10, 32]: 8 mm; zone of inhibition at 20 µg/disc ([13]; ATCC 25922, 24 h, read-out: DIZ): 7 mm; zone of inhibition at 20 µg/disc [14]: 8 mm; zone of inhibition at 140 µg/disc [17, 32]: 10 mm; zone of inhibition at 40 µg/disc ([21]; read-out: DIZ): 7 mm; zone of inhibition at 140 µg/disc [22]: 9 mm; zone of inhibition at 40 µg/disc [23]: 9 mm; zone of inhibition at 40 µg/disc [24]: 8 mm; zone of inhibition at 20 µg/disc [28, 31]: 8 mm; zone of inhibition at 40 µg/disc [30]: 9 mm
CC1(C)CC(=O)C2=C(C1)OC1=C(C(=O)CC(C)(C)C1)C2c1cccc(C2C3=C(CC(C)(C)CC3=O)OC3=C2C(=O)CC(C)(C)C3)c1	inactive	inactive	inactive	inactive	inactive	inactive	inactive	inactive	7 mm	7 mm	7 mm	7 mm	inactive	inactive	inactive	inactive	inactive	inactive	inactive	inactive	diameter of the inhibition zone (DIZ) [4]: inactive; diameter of the inhibition zone (DIZ) [7]: inactive; diameter of the inhibition zone (DIZ) [14]: inactive; diameter of the inhibition zone (DIZ) [17]: inactive; diameter of the inhibition zone (DIZ) [21]: inactive; zone of inhibition at 140 µg/disc [22]: 8 mm; diameter of the inhibition zone (DIZ) [23]: inactive; zone of inhibition at 40 µg/disc [24]: 7 mm; diameter of the inhibition zone (DIZ) [28]: inactive; diameter of the inhibition zone (DIZ) [30]: inactive
CC1(C)CC(=O)C2=C(C1)OC1=C(C(=O)CC(C)(C)C1)C2c1ccc(C2C3=C(CC(C)(C)CC3=O)OC3=C2C(=O)CC(C)(C)C3)cc1	inactive	inactive	inactive	inactive	inactive	inactive	inactive	inactive	9 mm	9 mm	7 mm	9 mm	inactive	inactive	inactive	inactive	inactive	inactive	inactive	inactive	diameter of the inhibition zone (DIZ) [4]: inactive; diameter of the inhibition zone (DIZ) [7]: inactive; diameter of the inhibition zone (DIZ) [14]: inactive; diameter of the inhibition zone (DIZ) [17]: inactive; diameter of the inhibition zone (DIZ) [21]: inactive; diameter of the inhibition zone (DIZ) [22]: inactive; diameter of the inhibition zone (DIZ) [23]: inactive; diameter of the inhibition zone (DIZ) [24]: inactive; diameter of the inhibition zone (DIZ) [28]: inactive; diameter of the inhibition zone (DIZ) [30]: inactive
COc1ccc(C2CC(=O)C3=C(C2)OC2=C(C(=O)CC(c4ccc(OC)c(OC)c4)C2)C3c2cccc(C3C4=C(CC(c5ccc(OC)c(OC)c5)CC4=O)OC4=C3C(=O)CC(c3ccc(OC)c(OC)c3)C4)c2)cc1OC (stereo not given)	inactive	inactive	inactive	inactive	inactive	inactive	inactive	inactive	7 mm			7 mm	inactive	inactive	inactive	inactive	inactive	inactive	inactive	inactive	diameter of the inhibition zone (DIZ) [4]: inactive; zone of inhibition at 140 µg/disc [7]: 7 mm; zone of inhibition at 20 µg/disc [14]: 7 mm; diameter of the inhibition zone (DIZ) [17]: inactive; diameter of the inhibition zone (DIZ) [20]: inactive; diameter of the inhibition zone (DIZ) [21]: inactive; diameter of the inhibition zone (DIZ) [22]: inactive; diameter of the inhibition zone (DIZ) [23]: inactive; diameter of the inhibition zone (DIZ) [24]: inactive; diameter of the inhibition zone (DIZ) [25]: inactive; diameter of the inhibition zone (DIZ) [28]: inactive; diameter of the inhibition zone (DIZ) [30]: inactive
O=C1CCCC2=C1C(c1cccc(C3C4=C(CCCC4=O)OC4=C3C(=O)CCC4)c1)C1=C(CCCC1=O)O2	inactive	inactive	inactive	inactive	inactive	inactive	inactive	inactive	7 mm	9 mm	8 mm	7 mm	inactive	inactive	inactive	inactive	inactive	inactive	inactive	inactive	zone of inhibition at 20 µg/disc [4]: 8 mm; zone of inhibition at 140 µg/disc [7]: 7 mm; diameter of the inhibition zone (DIZ) [14]: inactive; diameter of the inhibition zone (DIZ) [17]: inactive; diameter of the inhibition zone (DIZ) [21]: inactive; diameter of the inhibition zone (DIZ) [22]: inactive; zone of inhibition at 40 µg/disc [23]: 10 mm; diameter of the inhibition zone (DIZ) [24]: inactive; diameter of the inhibition zone (DIZ) [28]: inactive; zone of inhibition at 40 µg/disc [30]: 7 mm

Source: ChEMBL document CHEMBL3044875, “Synthesis and antimicrobial activity of some bisoctahydroxanthene-1,8-dione derivatives” (2011)
